According to ChEMBL document CHEMBL1201862, “PubChem BioAssay data set” (2004):
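Interpolation was linear, between the two tested concentrations surrounding the appropriate level; five concentrations were tested over 48 hours in 96-well plates. GI50: concentration for 50% inhibition of growth.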 The source made the active and inactive calls. Rule as the data show it: active = GI50 up to about 1.1 µM and inactive = higher.

Legend:
Test in all cases: NCI-60 cell line screen, 48 h
OVCAR-3 = tested on: OVCAR-3
SK-OV-3 = tested on: SK-OV-3
Hs-578T = tested on: Hs-578T
HT-29 = tested on: HT-29
NCI-H522 = tested on: NCI-H522
HOP-92 = tested on: HOP-92
786-0 = tested on: 786-0
UACC-62 = tested on: UACC-62
SF-268 = tested on: SF-268
SK-MEL-28 = tested on: SK-MEL-28
KM12 = tested on: KM12
UO-31 = tested on: UO-31
PC-3 = tested on: PC-3
HCC 2998 = tested on: HCC 2998
NCI-H23 = tested on: NCI-H23
RPMI-8226 = tested on: RPMI-8226
TK-10 = tested on: TK-10
SF-295 = tested on: SF-295
NCI/ADR-RES = tested on: NCI/ADR-RES

Measured: GI50

Cc1cn2cc(-c3cccs3)nc2s1
inactive: OVCAR-3 > 100 µM | SK-OV-3 > 100 µM | Hs-578T > 100 µM | HT-29 > 41.2 µM | NCI-H522 > 100 µM | HOP-92 > 71.8 µM | 786-0 > 100 µM | UACC-62 > 100 µM | SF-268 > 91.8 µM | SK-MEL-28 > 100 µM | KM12 43.9 µM | UO-31 48.8 µM | PC-3 > 74.3 µM | HCC 2998 63.4 µM | NCI-H23 > 75.5 µM | RPMI-8226 > 100 µM | TK-10 > 73.3 µM | SF-295 > 100 µM

Cc1ccc(/C=C2/NC(=S)SC2=O)cc1
inactive: OVCAR-3 43.7 µM | NCI/ADR-RES 22.5 µM | SK-OV-3 88.1 µM | HT-29 28.6 µM | HOP-92 43.8 µM | 786-0 34.6 µM | SK-MEL-28 > 100 µM | KM12 33.3 µM | UO-31 24.5 µM | PC-3 38.4 µM | HCC 2998 31.2 µM | NCI-H23 20.7 µM | TK-10 18.1 µM | SF-295 27.6 µM

CN(Cc1cnc2c(n1)C(N)=NN(N)N2)c1ccc(C(=O)NC(CCP(=O)(O)O)C(=O)O)cc1 (stereo not given)
inactive: OVCAR-3 > 100 µM | NCI/ADR-RES 8.02 µM | SK-OV-3 > 100 µM | Hs-578T > 100 µM | HT-29 9.51 µM | NCI-H522 26.4 µM | HOP-92 > 100 µM | 786-0 1.86 µM | UACC-62 1.78 µM | SF-268 1.21 µM | SK-MEL-28 > 85.7 µM | KM12 5.14 µM | UO-31 > 19.9 µM | HCC 2998 15.3 µM | NCI-H23 14.9 µM | TK-10 > 100 µM | SF-295 3.08 µM

O=C(CC(C(=O)c1ccc(F)cc1)c1ccsc1)c1cccs1 (stereo not given)
inactive: NCI/ADR-RES 96.4 µM | SK-OV-3 > 100 µM | Hs-578T > 100 µM | HT-29 59.2 µM | 786-0 > 100 µM | UACC-62 > 100 µM | SF-268 > 100 µM | SK-MEL-28 > 100 µM | KM12 44.8 µM | UO-31 25.2 µM | PC-3 57.9 µM | HCC 2998 > 100 µM | NCI-H23 32.7 µM | RPMI-8226 37.6 µM | TK-10 > 100 µM | SF-295 67.6 µM

COc1ccc(C2C(Cl)C(=O)N2NC(=O)c2ccc(N)cc2)cc1OC (stereo not given)
inactive: OVCAR-3 5.85 µM | NCI/ADR-RES 1.97 µM | SK-OV-3 18.8 µM | HT-29 2.53 µM | NCI-H522 1.98 µM | HOP-92 2 µM | 786-0 2.43 µM | UACC-62 7.29 µM | SF-268 10.9 µM | SK-MEL-28 2.48 µM | KM12 1.52 µM | UO-31 12.1 µM | PC-3 12.9 µM | HCC 2998 8.11 µM | NCI-H23 6.08 µM | RPMI-8226 3.1 µM | TK-10 17 µM | SF-295 7.16 µM

ClC(Cl)(Cl)C1CCOC1n1nnc2ccccc21 (stereo not given)
inactive: OVCAR-3 > 100 µM | NCI/ADR-RES 42.2 µM | SK-OV-3 > 100 µM | Hs-578T 89.7 µM | HT-29 73.5 µM | NCI-H522 82.4 µM | 786-0 > 100 µM | UACC-62 > 100 µM | SF-268 > 100 µM | PC-3 > 100 µM | HCC 2998 > 100 µM | NCI-H23 24.3 µM | TK-10 > 100 µM | SF-295 > 100 µM

Cc1ccc(O)cc1.Cc1cccc(O)c1.Cc1ccccc1O [CRESOL]
inactive: OVCAR-3 > 100 µM | NCI/ADR-RES > 100 µM | SK-OV-3 > 100 µM | Hs-578T 4.75 µM | HT-29 > 100 µM | NCI-H522 8.34 µM | 786-0 > 100 µM | UACC-62 88.3 µM | SF-268 > 100 µM | SK-MEL-28 > 100 µM | KM12 > 100 µM | UO-31 > 100 µM | PC-3 73.3 µM | HCC 2998 > 100 µM | NCI-H23 > 100 µM | RPMI-8226 > 100 µM | TK-10 > 100 µM | SF-295 > 100 µM

Cc1ccc(-c2cc(-c3ccccc3)nc(N)n2)c(O)c1
inactive: OVCAR-3 > 59.2 µM | NCI/ADR-RES > 100 µM | SK-OV-3 > 75.7 µM | HT-29 > 100 µM | NCI-H522 5.4 µM | HOP-92 > 64.1 µM | 786-0 > 58.1 µM | UACC-62 > 78.2 µM | SF-268 > 100 µM | SK-MEL-28 > 100 µM | KM12 7.46 µM | UO-31 > 100 µM | PC-3 > 32.9 µM | HCC 2998 > 100 µM | NCI-H23 > 100 µM | RPMI-8226 3.06 µM | TK-10 > 60.1 µM | SF-295 39.4 µM

Nc1ccc(Oc2ccc(C34CC5CC(C3)CC(c3ccc(Oc6ccc(N)cc6C(F)(F)F)cc3)(C5)C4)cc2)c(C(F)(F)F)c1
inactive: OVCAR-3 17.9 µM | NCI/ADR-RES 21.7 µM | SK-OV-3 15.6 µM | Hs-578T 17.1 µM | HT-29 17.2 µM | NCI-H522 14.4 µM | 786-0 31.6 µM | UACC-62 22.1 µM | SF-268 17.4 µM | SK-MEL-28 43.3 µM | KM12 21 µM | UO-31 39.1 µM | PC-3 14.8 µM | NCI-H23 17.7 µM | TK-10 16.1 µM | SF-295 25.3 µM

CC1(C)COC(c2ccccc2-c2ccccc2)=N1
inactive: OVCAR-3 > 100 µM | NCI/ADR-RES > 100 µM | SK-OV-3 > 100 µM | HT-29 83 µM | NCI-H522 38.7 µM | HOP-92 > 100 µM | 786-0 > 100 µM | UACC-62 54.6 µM | SF-268 > 100 µM | SK-MEL-28 > 100 µM | KM12 > 100 µM | UO-31 67.6 µM | PC-3 > 100 µM | HCC 2998 > 100 µM | NCI-H23 88.5 µM | RPMI-8226 > 100 µM | SF-295 53.7 µM

Cc1c(/C=N/NC(=S)Nc2ccccc2Cl)c(=O)n(-c2ccccc2)n1C
inactive: OVCAR-3 34.1 µM | NCI/ADR-RES 20.2 µM | SK-OV-3 31 µM | Hs-578T 24 µM | HT-29 29.4 µM | NCI-H522 22.5 µM | 786-0 19.9 µM | UACC-62 31 µM | SF-268 43.8 µM | SK-MEL-28 58.6 µM | KM12 29.3 µM | UO-31 15.1 µM | PC-3 43 µM | RPMI-8226 48.9 µM | TK-10 23.4 µM | SF-295 28.1 µM

C=C(C)C1CC/C(C)=C/CC[C@]2(C)O[C@H]2CC/C(COC(C)=O)=C\[C@@H]1O (stereo not given in full)
inactive: OVCAR-3 > 50 µM | NCI/ADR-RES 20.7 µM | SK-OV-3 31.1 µM | HT-29 > 50 µM | NCI-H522 19.2 µM | HOP-92 > 50 µM | 786-0 > 50 µM | UACC-62 > 50 µM | SF-268 > 50 µM | SK-MEL-28 > 50 µM | KM12 > 50 µM | UO-31 > 50 µM | PC-3 22.4 µM | HCC 2998 > 50 µM | NCI-H23 > 50 µM | RPMI-8226 > 50 µM | TK-10 > 50 µM | SF-295 30.7 µM
